# Read-outs that look alike come from different tables or passages of the source.
# Tests used:
# [1] = tested on: ESR1 transcription (luciferase signal in MVLN cells); test: Repression of ESR1 transcription, luciferase reporter in MVLN cells; type: cell-based; details: inhibition of luciferase signal in MVLN cells, arithmetic mean
# Summary of the method: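 Luminescence from an ER-driven Vitellogenin A2 element–luciferase reporter was measured after 24 h of treatment of MVLN cells, in duplicate wells. Alamar Blue (2 h, 530/590 nm) served as a cell-density control.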
# ZR-75-1 cells = test: Proliferation assay ZR-75-1 (Alamar Blue, 144 h); type: cell-based; details: arithmetic mean, read-out: ZR75-1 proliferation assay, EC50 [M] (arithmetic mean)
# Summary of the method: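 Alamar Blue fluorescence (590 nm, 2 h reagent step) measured viability after 144 h compound exposure at 37 °C, 5% CO2. Compounds spanned 2.0×10E-5 to 2.0×10E-9 M in 9 dilutions at 0.2% DMSO, in triplicate, added 24 h after plating 3000 cells/well in RPMI 1640 plus 2.5% FBS.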
# [2] = biological target: Recombinant human His-tagged Kat6a protein (amino acids 194-810) (Homo sapiens (Human), UniProt Q92794); test: Kat6a activity assay (TR-FRET, acetylation of biotinylated Histone-H4-derived peptide); type: biochemical; details: 60 mins at 22° C., read-out: KAT6A-DPF/HAT domain IC50 [mol/l] (arithmetic mean)
# Summary of the method: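 TR-FRET read-out of H4 K8 acetylation, using anti-acetyl-K8 antibody and streptavidin acceptor, after anacardic acid stop; IC50 from four-parameter regression normalized to DMSO. Reaction: recombinant human Kat6a aa 194-810 (insect-cell derived), 220 nM H4 1-24 peptide, 600 nM acetyl-CoA, pH 8, 22 °C, 60 min, compounds 0.01-20 μM.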
# MDA-MB-436 cells = test: Proliferation assay MDA-MB-436, negative control cell line (Alamar Blue, 144 h); type: cell-based; details: arithmetic mean
# Summary of the method: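 Viability read as Alamar Blue fluorescence (590 nm, 2 h) after 144 h compound exposure at 37 °C, 5% CO2. Cells seeded at 3000 per well in 2.5% FBS DMEM/Ham's F12, dosed a day later over 2.0×10E-9–2.0×10E-5 M in 9 steps with 0.2% DMSO, in triplicate.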
# [3] = biological target: Recombinant human GST-tagged Kat6b protein (431-end); test: Kat6b activity assay (TR-FRET, acetylation of biotinylated Histone-H4-derived peptide); type: biochemical; details: 30 mins at 22° C., read-out: KAT6B activity assay IC50 [mol/l] (arithmetic mean)
# [4] = Homo sapiens, MDA-MB-436, 144 h
# Chain of Recombinant human His-tagged Kat6a protein (amino acids 194-810) (Q92794 194-810): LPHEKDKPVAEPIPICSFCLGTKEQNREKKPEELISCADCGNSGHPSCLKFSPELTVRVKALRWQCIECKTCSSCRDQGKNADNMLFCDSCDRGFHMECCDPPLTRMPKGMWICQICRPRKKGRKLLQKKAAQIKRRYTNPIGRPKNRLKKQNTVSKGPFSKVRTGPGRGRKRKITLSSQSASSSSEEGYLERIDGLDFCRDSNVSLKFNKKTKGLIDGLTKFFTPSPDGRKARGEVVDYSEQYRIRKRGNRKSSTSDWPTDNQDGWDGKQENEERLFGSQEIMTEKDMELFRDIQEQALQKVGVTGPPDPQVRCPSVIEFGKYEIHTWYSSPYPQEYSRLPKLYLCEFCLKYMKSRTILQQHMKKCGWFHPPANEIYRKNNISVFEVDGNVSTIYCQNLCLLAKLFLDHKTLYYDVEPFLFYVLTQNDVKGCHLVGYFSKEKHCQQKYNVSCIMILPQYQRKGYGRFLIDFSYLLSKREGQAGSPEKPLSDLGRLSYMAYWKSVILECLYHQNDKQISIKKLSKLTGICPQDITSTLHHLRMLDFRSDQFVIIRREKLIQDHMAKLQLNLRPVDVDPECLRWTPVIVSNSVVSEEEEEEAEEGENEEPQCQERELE
SMILES,"IC50 ([1]; Homo sapiens, MVLN) [nM]","EC50 (ZR-75-1 cells; Homo sapiens, ZR-75-1, 144 h) [M]",IC50 [2] [nM],EC50 (MDA-MB-436 cells; [4]) [nM],IC50 [3] [nM],IC50 [1] [nM],EC50 (ZR-75-1 cells) [M],EC50 (MDA-MB-436 cells) [nM]
"O=C(NS(=O)(=O)c1ccccc1-c1ccccc1)c1cc2ccc(N3CCCC3)cc2o1 [Example 45, N-([1,1′-Biphenyl]-2-sulfonyl)-6-(pyrrolidin-1-yl)-1-benzofuran-2-carboxamide]",6450,1.19e-05,3600,> 20000,1480,–,–,–
"O=C(NS(=O)(=O)c1ccccc1-c1ccccc1)c1cc2ccc(N3CCCCC3)cc2o1 [Example 47, N-([1,1′-Biphenyl]-2-sulfonyl)-6-(piperidin-1-yl)-1-benzofuran-2-carboxamide]",> 20000,> 2e-05,7800,> 20000,15900,–,–,–
"CN(C)c1ccc2cc(C(=O)NS(=O)(=O)c3ccccc3-c3cccc(Cl)c3)sc2c1 [Example 49, N-(3′-Chloro[1,1′-biphenyl]-2-sulfonyl)-6-(dimethylamino)-1-benzothiophene-2-carboxamide]",2470,5.17e-06,310,> 20000,528,–,–,–
"CCS(=O)(=O)NC(=O)c1cc2ccc(N(C)C)cc2o1 [Example 61, 6-(Dimethylamino)-N-(ethanesulfonyl)-1-benzofuran-2-carboxamide]",> 20000,1.77e-05,16100,> 20000,9850,–,–,–
"CN(C)c1ccc2cc(C(=O)NS(C)(=O)=O)oc2c1 [Example 63, 6-(Dimethylamino)-N-(methanesulfonyl)-1-benzofuran-2-carboxamide]",> 20000,> 2e-05,16500,> 20000,> 20000,–,–,–
"CN(C)c1ccc2cc(C(=O)NS(=O)(=O)c3ccccc3OC3CC3)oc2c1 [Example 65, N-[2-(Cyclopropyloxy)benzene-1-sulfonyl]-6-(dimethylamino)-1-benzofuran-2-carboxamide]",20.4,4.44e-08,28.3,> 20000,34.5,–,–,–
"CC(C)Oc1ccccc1S(=O)(=O)NC(=O)c1cc2ccc(N(C)C)cc2o1 [Example 66, 6-(Dimethylamino)-N-{2-[(propan-2-yl)oxy]benzene-1-sulfonyl}-1-benzofuran-2-carboxamide]",–,–,49.4,–,59.1,31,5.47e-08,> 20000
"CCOc1ccc(C)cc1S(=O)(=O)NC(=O)c1cc2ccc(N(C)C)cc2o1 [Example 67, 6-(Dimethylamino)-N-(2-ethoxy-5-methylbenzene-1-sulfonyl)-1-benzofuran-2-carboxamide]",40.2,4.08e-08,42.9,> 20000,118,–,–,–
"CN(C)c1ccc2cc(C(=O)NS(=O)(=O)c3ccccc3OC(C)(C)C)oc2c1 [Example 68, N-(2-tert-butoxybenzene-1-sulfonyl)-6-(dimethylamino)-1-benzofuran-2-carboxamide]",51,8.44e-08,69.6,> 20000,84.5,–,–,–
"COc1ccc2cccnc2c1S(=O)(=O)NC(=O)c1cc2ccc(N(C)C)cc2o1 [Example 70, 6-(Dimethylamino)-N-(7-methoxyquinoline-8-sulfonyl)-1-benzofuran-2-carboxamide]",71.3,1.63e-07,122,> 20000,109,–,–,–
"CN(C)c1ccc2cc(C(=O)NS(=O)(=O)c3ccccc3OCC3CC3)oc2c1 [Example 71, N-[2-(Cyclopropylmethoxy)benzene-1-sulfonyl]-6-(dimethylamino)-1-benzofuran-2-carboxamide]",71.9,1.92e-07,72.4,> 20000,131,–,–,–
"CN(C)c1ccc2cc(C(=O)NS(=O)(=O)c3ccccc3OCCF)oc2c1 [Example 72, 6-(Dimethylamino)-N-[2-(2-fluoroethoxy)benzene-1-sulfonyl]-1-benzofuran-2-carboxamide]",76.5,1.31e-07,96.7,> 20000,190,–,–,–
"CN(C)c1ccc2cc(C(=O)NS(=O)(=O)c3cccc4cccnc34)oc2c1 [Example 73, 6-(Dimethylamino)-N-(quinoline-8-sulfonyl)-1-benzofuran-2-carboxamide]",99.4,2.48e-07,117,> 20000,78.5,–,–,–
"CN(C)c1ccc2cc(C(=O)NS(=O)(=O)c3ccccc3OCC(F)(F)F)oc2c1 [Example 74, 6-(Dimethylamino)-N-[2-(2,2,2-trifluoroethoxy)benzene-1-sulfonyl]-1-benzofuran-2-carboxamide]",117,1.65e-07,128,> 20000,228,–,–,–
"CN(C)c1ccc2cc(C(=O)NS(=O)(=O)c3ccccc3OCC(F)F)oc2c1 [Example 75, N-[2-(2,2-Difluoroethoxy)benzene-1-sulfonyl]-6-(dimethylamino)-1-benzofuran-2-carboxamide]",130,1.65e-07,163,> 20000,246,–,–,–
"CC(C)COc1ccccc1S(=O)(=O)NC(=O)c1cc2ccc(N(C)C)cc2o1 [Example 76, 6-(Dimethylamino)-N-[2-(2-methylpropoxy)benzene-1-sulfonyl]-1-benzofuran-2-carboxamide]",146,1.95e-07,88.7,> 20000,190,–,–,–
"CC(C)c1ccccc1S(=O)(=O)NC(=O)c1cc2ccc(N(C)C)cc2o1 [Example 77, 6-(Dimethylamino)-N-[2-(propan-2-yl)benzene-1-sulfonyl]-1-benzofuran-2-carboxamide]",152,1.48e-06,272,> 20000,546,–,–,–
"CCOc1ccc(I)cc1S(=O)(=O)NC(=O)c1cc2ccc(N(C)C)cc2o1 [Example 78, 6-(Dimethylamino)-N-(2-ethoxy-5-iodobenzene-1-sulfonyl)-1-benzofuran-2-carboxamide]",153,2.79e-06,32.7,> 20000,87,–,–,–
"CN(C)c1ccc2cc(C(=O)NS(=O)(=O)c3ccccc3OC(F)F)oc2c1 [Example 79, N-[2-(Difluoromethoxy)benzene-1-sulfonyl]-6-(dimethylamino)-1-benzofuran-2-carboxamide]",164,2.22e-07,188,> 20000,200,–,–,–
"CCOc1cccc(-c2ccccc2)c1S(=O)(=O)NC(=O)c1cc2ccc(N(C)C)cc2o1 [Example 80, 6-(Dimethylamino)-N-(3-ethoxy[1,1′-biphenyl]-2-sulfonyl)-1-benzofuran-2-carboxamide]",172,3.29e-07,73.8,> 20000,68.8,–,–,–
"CCOc1ncccc1S(=O)(=O)NC(=O)c1cc2ccc(N(C)C)cc2o1 [Example 81, 6-(Dimethylamino)-N-(2-ethoxypyridine-3-sulfonyl)-1-benzofuran-2-carboxamide]",188,4.06e-07,320,> 20000,377,–,–,–
"CN(C)c1ccc2cc(C(=O)NS(=O)(=O)c3ccccc3OC3COC3)oc2c1 [Example 82, 6-(Dimethylamino)-N-{2-[(oxetan-3-yl)oxy]benzene-1-sulfonyl}-1-benzofuran-2-carboxamide]",201,2e-07,237,> 20000,265,–,–,–
"CN(C)c1ccc2cc(C(=O)NS(=O)(=O)c3ccccc3Oc3ccccc3)oc2c1 [Example 85, 6-(Dimethylamino)-N-(2-phenoxybenzene-1-sulfonyl)-1-benzofuran-2-carboxamide]",232,4e-07,115,> 20000,186,–,–,–
"COc1ccc(Cn2cccn2)cc1S(=O)(=O)NC(=O)c1cc2ccc(N(C)C)cc2o1 [Example 86, 6-(Dimethylamino)-N-{2-methoxy-5-[(1H-pyrazol-1-yl)methyl]benzene-1-sulfonyl}-1-benzofuran-2-carboxamide]",235,1.57e-07,64.9,> 20000,80,–,–,–
"Cc1cnc2c(S(=O)(=O)NC(=O)c3cc4ccc(N(C)C)cc4o3)cccc2c1 [Example 87, 6-(Dimethylamino)-N-(3-methylquinoline-8-sulfonyl)-1-benzofuran-2-carboxamide]",249,4.18e-07,97.3,> 20000,104,–,–,–
